{
  "source": "patent US12257050B2",
  "about": "“Calibration free in-vivo measurement of analytes using electrochemical sensors” (THE REGENTS OF THE UNIVERSITY OF CALIFORNIA, priority 2017, dated 2025)",
  "conditions": "rat, in vivo, iv, 30 mg/kg",
  "excerpt": "The drift-resistance of chronoamperometrically-interrogated E-AB sensors is sufficient to support continuous, real-time measurements directly in situ in the blood of live animals. Aminoglycoside-binding E-AB were fabricated sensors on 75 μm-diameter gold micro-wires, encased in 22-gauge catheters for structural support, and deployed directly in the jugular veins of live rats (FIG. 6A). The plasma pharmacokinetics of the antibiotic tobramycin were monitored following an intravenous administration of 30 mg/kg by performing continuous chronoamperometric measurements for a total of two hours (FIG. 6B). Continuous measurements were achieved by pulsing the potential of the E-AB sensors serially between −0.1 V and −0.3 V, holding each pulse with a duration of only 100 ms. Then, non-linear regression analysis was performed of the current transients generated at −0.3 V to extract current decay lifetimes in real time, and these lifetimes were converted to concentration using the previously determined Langmuir isotherm (FIG. 6C). […]\nThe sub-second time resolution of chronoamperometrically interrogated E-AB sensors measurement of drug pharmacokinetics with unprecedented precision. The distribution, α, and elimination, β, lifetimes of tobramycin were determined by fitting the in vivo data to a two-compartment pharmacokinetic model. […]",
  "data": [
    {"smiles": "NC[C@H]1O[C@H](O[C@H]2[C@H](O)[C@@H](O[C@H]3O[C@H](CO)[C@@H](O)[C@H](N)[C@H]3O)[C@H](N)C[C@@H]2N)[C@H](N)C[C@@H]1O", "note": "[tobramycin]", "values": [
      {"measurement": "distribution lifetime α (first-order time constant of drug distribution)", "value": "3.74 ± 0.04", "unit": "min"},
      {"measurement": "elimination lifetime β (elimination time constant)", "value": "69 ± 2", "unit": "min"}
    ]}
  ]
}
